Reference: PubChem BioAssay AID1259418 (Broad Institute, 2018)
Several values for one entry are separate records, joined by “and”; a condition that tells them apart may be missing. Equal entries are not always repeated. Records with an inconclusive call do not appear. Activity calls are given as the source filed them.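 Rule for the calls: active = fitted half-maximal concentration of signal decrease at or below twice the sample's top tested concentration; inconclusive = flat curve between -70 and -30 percent, or poor fit; inactive = flat within 30 percent, signal rise, or potency above limit.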

target: T. gondii ME49Luc in IFN-y HeLa, luciferase, 72 h; test: inhibitors of Toxoplasma growth in IFN-γ-primed HeLa – cell-based, ME49Luc, luciferase, 72 h, dose response (AID 1259418)

Row | Structure (SMILES) | AC50
1 | COc1cccc(-c2ccc3c(c2)[C@@H]2[C@@H](CCN2S(=O)(=O)c2ccccc2F)[C@@H](CO)N3)c1 | 25.4 µM
2 | COc1ccc(-c2nc(NCCCN3CCN(Cc4ccccc4)CC3)c3ccccc3n2)cc1 | > 39 µM (inactive)
3 | Cc1cccc(S(=O)(=O)N2C[C@H]3[C@@H](c4ccccc42)[C@@H](CO)N3C(=O)c2ccccc2)c1 | > 39 µM (inactive)
4 | COc1ccccc1Cn1ncc2c1CCCC2NC(=O)c1cc(-c2cccs2)no1 (stereo not given) | 14.1 µM
5 | CCC[C@@]1(CCc2ccccc2)CC(=O)C([C@H](CC)c2cccc(NS(=O)(=O)c3ccc(C(F)(F)F)cn3)c2)C(=O)O1 (stereo not given in full) | 17.3 µM
6 | COCC(=O)Nc1ccc(-c2nc(-c3cc(C)ccc3C)co2)cc1 | > 39 µM (inactive)
7 | COc1ccc(S(=O)(=O)N2CCCCN3[C@H](C2)[C@@H](c2ccc(C#CCC(C)C)cc2)[C@@H]3CO)cc1 | 12.3 µM
8 | O=C(Cc1ccccn1)N1CC(=O)N2[C@H](CO)[C@@H](c3ccc(C#CCC4CCCC4)cc3)[C@H]2C1 | 15.8 µM
9 | CC(C)n1c(C(=O)N2CCN(c3ccncc3)CC2)cc2c1c1ccccc1n2C | 19.9 µM
10 | COc1ccc(-c2nc(NCC3CCN(Cc4ccc(C)cc4)C3)c3ccccc3n2)cc1 (stereo not given) | 13.5 µM
11 | CCOc1ccc(-c2nc(CN3CCN(C(=O)Nc4ccc(C)cc4Cl)CC3)c(C)o2)cc1 | 24.1 µM
12 | CCCCNC(=O)CCC1N=C2c3ccccc3N=C(SCc3ccccc3Cl)N2C1=O (stereo not given) | 24.1 µM
13 | COc1ccc(-c2nc(Nc3ccc(CN4CCCCC4)cc3)c3ccccc3n2)cc1 | 12 µM
14 | O=C(CC1N=C2c3ccccc3N=C(SCc3ccccc3F)N2C1=O)NCc1cccs1 (stereo not given) | 18.4 µM
15 | Cc1ccc(N2CC(NC(=O)C(=O)c3c[nH]c4ccccc34)CC2=O)cc1 (stereo not given) | > 39 µM (inactive)
16 | Cc1ccccc1S(=O)(=O)N1CCCCN2[C@H](C1)[C@@H](c1ccc(C#CCN(C)C)cc1)[C@@H]2CO | 20.9 µM
17 | N#Cc1cccc(-c2ccc([C@@H]3[C@H]4CN(Cc5ccccc5F)CCCCN4[C@H]3CO)cc2)c1 | 16.5 µM
18 | CCc1cnc(N2[C@H](C#N)[C@H](c3ccc(C#Cc4ccccc4F)cc3)[C@@H]2CO)s1 | 19.4 µM
19 | COc1ccc(-c2nc(CN(c3ccccc3)S(=O)(=O)c3ccccc3)c(C)o2)cc1OC | 3.77 µM
20 | CC(C)Cc1ccc(S(=O)(=O)N2CCC3(CC2)NCCN=C3NCc2ccc3c(c2)OCO3)cc1 | 5.76 µM
21 | O=C(c1cnccn1)N1CC(=O)N2[C@H](CO)[C@H](c3ccc(/C=C/c4ccccc4)cc3)[C@@H]2C1 | 24.8 µM
22 | COc1cccc(S(=O)(=O)N2CCCCN3[C@H](CO)[C@H](c4ccc(C#CCC(C)C)cc4)[C@@H]3C2)c1 | 13.6 µM and 2.35 µM
23 | COc1ccc(N(Cc2nc(-c3ccc(C)cc3)oc2C)S(=O)(=O)c2ccccc2C)cc1 | 31.9 µM

Row | Structure (SMILES) | AC50
24 | COc1ccc(-c2nc(N3CCOCC3)c3ccccc3n2)cc1 | 36.1 µM
25 | COc1ccccc1C(=O)Nc1ccc(-c2nc(-c3cc(C)ccc3C)co2)cc1 | 5.13 µM
26 | CCCc1ccc(S(=O)(=O)N2CCC[C@@H]2C(=O)NCCc2csc(-c3ccccc3)n2)cc1 | 3.78 µM and 16 µM
27 | Cc1oc(-c2ccccc2)nc1CSc1nc2c(c(=O)[nH]1)CN(Cc1ccccc1)CC2 | 15.4 µM
28 | Cc1ccccc1-c1ccc(C2[C@@H]3CN(Cc4cncnc4)C[C@H]2N3)cc1 (stereo not given in full) | 19 µM
29 | Cc1ccccc1-c1nc(CN2CCN(C(=O)NC3CCCC3)CC2)c(C)o1 | > 39 µM (inactive)
30 | O=C(CCC1N=C2c3ccccc3N=C(SCc3ccc(Cl)cc3)N2C1=O)NCc1cccs1 (stereo not given) | 14.9 µM
31 | COc1ccc(CN2CCC(c3cc4c(ncn4C)c(-c4ccc(OC)cc4)n3)CC2)cc1 | 24.7 µM
32 | COc1ccc(CNC2=NCCNC23CCN(S(=O)(=O)c2cc(C)c(C)cc2C)CC3)cc1 | 12.6 µM
33 | Cc1ccc(CSC2=Nc3ccccc3C3=NC(CCC(=O)NCCc4ccccc4)C(=O)N23)cc1 (stereo not given) | 30.8 µM
34 | COc1cccc(-c2nc3c(s2)CN(C(=O)Nc2ccc(C)c(F)c2)CC3)c1 | 13.1 µM
35 | CCCN1CCc2nc(SCc3nc(-c4ccccc4OC)oc3C)[nH]c(=O)c2C1 | > 39 µM (inactive)
36 | N#C[C@@H]1[C@@H](c2ccc(C3=CCCCC3)cc2)[C@@H](CO)N1S(=O)(=O)c1ccccc1 | > 39 µM (inactive) and 5.52 µM
37 | Cc1ccc(NC(=O)N2CCN(Cc3nc(-c4cccc(Cl)c4)oc3C)CC2)cc1Cl | 15.7 µM
38 | OC[C@H]1N[C@@H](CNCC2CCC2)[C@@H]1c1ccc(C2=CCCCC2)cc1 | 12.4 µM and 20.4 µM
39 | CCc1cnc(N2[C@H](C#N)[C@@H](c3ccc(C#Cc4ccccc4F)cc3)[C@H]2CO)s1 | 20.5 µM and 6.21 µM
40 | Cc1nnsc1CN(C)Cc1[nH]c2ccc(F)cc2c1C | > 39 µM (inactive)
41 | CCc1cc(C2CCCN2C(=O)c2cc(C(F)(F)F)nn2C)on1 (stereo not given) | > 39 µM (inactive)
42 | N#Cc1ccc(-c2ccc([C@@H]3[C@@H]4CN(S(=O)(=O)Cc5ccccc5)C[C@H]3N4)cc2)cc1 | 6.55 µM and 15.5 µM
43 | O=C(Nc1ccccc1)N1CC2CN(Cc3ccc(C(F)(F)F)cc3)C2C1 (stereo not given) | 36.6 µM
44 | CN1c2ccc(-c3ccc(C#N)cc3)cc2[C@@H]2[C@@H](CCN2S(=O)(=O)c2ccc(F)cc2)[C@@H]1CO | 15.8 µM
45 | Cc1nc(OCC(=O)Nc2cccc(F)c2)c2ccccc2n1 | 28.8 µM
